Reference: PMC12040169 (PLOS Biology, 2025)

Experiment: in vitro
Conditions: human, hela cells

## CS(=O)(=O)c1ccc(-c2ccc3c(c2)CCN(C2CCN(C(=O)Oc4ccccc4)CC2)C3)cc1 [CBK169518]
  viability at 28.5 h, 10 µM: 90.1%

## Cc1cc(N2CCCN3CCCCCC32)nc(N)n1 (stereo not drawn) [CBK169746]
% viability
  viability at 28.5 h, 10 µM: 102%

## CC(C)(C)OC(=O)NCc1ccc(-c2nnc(CC(=O)O)o2)cc1 [CBK169899D]
% viability
  viability at 28.5 h, 10 µM: 96.5%

## CNC1CCN(S(=O)(=O)c2sc3ccc(C(C)C)cc3c2C)C1 (stereo not drawn) [CBK170067]
% viability
  viability at 28.5 h, 10 µM: 110%

## COC(=O)c1ccc(-c2cnc(OCC3CCN(C(=O)OC(C)(C)C)CC3)nc2)nc1 [CBK170130]
% viability
  viability at 28.5 h, 10 µM: 101%

## Cc1cc(NC2CC3CCCC(C2)N3C)nc(N)n1 (stereo not drawn) [CBK170333]
% viability
  viability at 28.5 h, 10 µM: 88.4%

## Cc1c(S(=O)(=O)N2CCN(C3CCN(C)CC3)CC2)sc2ccc(C(C)C)cc12 [CBK170352]
% viability
  viability at 28.5 h, 10 µM: 105%

## Cc1cc(CNS(=O)(=O)c2sc3ccc(C(C)C)cc3c2C)no1 [CBK170353]
% viability
  viability at 28.5 h, 10 µM: 109%

## Cc1c(S(=O)(=O)NCCN(C)C)sc2ccc(C(C)C)cc12 [CBK170357]
% viability
  viability at 28.5 h, 10 µM: 90.2%

## Cc1cc(NC(=O)C(C)OC(=O)C(NC(=O)OC(C)(C)C)c2ccccc2)no1 (stereo not drawn) [CBK170398]
% viability
  viability at 28.5 h, 10 µM: 100%

## COc1cc(C(=O)N2CCC3(CC2)CC(=O)c2cc(-c4ccc(N(C)C)cc4)ccc2O3)cc(OC)c1C [CBK170663]
% viability
  viability at 28.5 h, 10 µM: 108%

## COc1cc(C(=O)N2CCC3(CC2)CC(=O)c2cc(NC(C)=O)ccc2O3)nc2c(OC)cccc12 [CBK170664]
% viability
  viability at 28.5 h, 10 µM: 122%

## O=C(OCc1ccccc1)N1CCC(C(=O)N(CCc2ccccc2)Cc2ccccc2)CC1 [CBK171978]
% viability
  viability at 28.5 h, 10 µM: 92.5%

## CCC(CC)C(=O)N1CCC(CNc2cnc(-c3ccc(S(C)(=O)=O)cc3)cn2)CC1 [CBK172021]
% viability
  viability at 28.5 h, 10 µM: 99.5%

## CN(C)[C@H]1CCN(C(=O)c2ccc(Nc3cncc(Cl)n3)cn2)C1 [CBK172073]
% viability
  viability at 28.5 h, 10 µM: 88.8%

## Fc1ccc2c(c1)[C@@H](Oc1cncc(NC3CCCNC3)n1)CCO2 (stereo partly drawn) [CBK172256G]
% viability
  viability at 28.5 h, 10 µM: 92.6%

## Cc1cccc2c1OCC[C@@H]2Oc1cncc(N2CCNCC2)n1 [CBK172310G]
% viability
  viability at 28.5 h, 10 µM: 101%

## C[C@H](Oc1cncc(N2CCNCC2)n1)c1ccccc1Cl [CBK172341G]
% viability
  viability at 28.5 h, 10 µM: 108%

## O=S1(=O)Cc2ccccc2C(Oc2cncc(N3CCNCC3)n2)C1 (stereo not drawn) [CBK172344T]
% viability
  viability at 28.5 h, 10 µM: 91.2%

## c1ccc2c(c1)CSCC2Oc1cncc(N2CCNCC2)n1 (stereo not drawn) [CBK172356T]
% viability
  viability at 28.5 h, 10 µM: 94.9%

## c1ccc2c(c1)OCC(COc1cncc(N3CCNCC3)n1)O2 (stereo not drawn) [CBK172357G]
% viability
  viability at 28.5 h, 10 µM: 101%

## Cc1ccc(S(=O)(=O)Nc2ccc3c(ccn3CCOC3CCN(C(=O)OC(C)(C)C)CC3)c2)cc1Cl [CBK172991]
% viability
  viability at 28.5 h, 10 µM: 99%

## O=C(c1ccc(-c2ccc(OCC3CCN(c4ncccn4)CC3)cn2)cc1)N1CCOCC1 [CBK173183]
% viability
  viability at 28.5 h, 10 µM: 91.8%

## COc1ccccc1-c1nc2ccccn2c1CO [CBK173210]
% viability
  viability at 28.5 h, 10 µM: 113%

## CCN(CC)C(=O)CCNC(=O)c1ccc2c(c1)COC(C1CCN(C(=O)OC(C)(C)C)CC1)O2 (stereo not drawn) [CBK173273]
% viability
  viability at 28.5 h, 10 µM: 92.2%

## CC(C)(C)OC(=O)N1CCC(C2OCc3cc(-c4ccc(S(C)(=O)=O)cn4)ccc3O2)CC1 (stereo not drawn) [CBK173326]
% viability
  viability at 28.5 h, 10 µM: 87.6%

## CN(Cc1ccc(-c2ccc(CO)cc2)nc1)C1CCN(C(=O)OC(C)(C)C)CC1 [CBK173453]
% viability
  viability at 28.5 h, 10 µM: 81.3%

## Cn1cc(-c2ccc(OCC3CCN(C(=O)OC(C)(C)C)CC3)cn2)cn1 [CBK173498]
% viability
  viability at 28.5 h, 10 µM: 77.8%

## C[S+]([O-])c1ccc(-c2cnc(NCC3CCN(C(=O)OC(C)(C)C)CC3)cn2)cc1 (stereo not drawn) [CBK173723]
% viability
  viability at 28.5 h, 10 µM: 83.4%

## CCCNCCc1ccc(NC(=O)Nc2cc(F)cc3c2OCOC3)cc1 [CBK173887T]
% viability
  viability at 28.5 h, 10 µM: 97.8%

## Cc1cc(COc2nc3ccccc3nc2NC[C@@H]2CCCO2)no1 [CBK174027]
% viability
  viability at 28.5 h, 10 µM: 119%

## O=C(Nc1ccc(Cl)cc1)NC1(C(=O)NCc2ccncc2)CCCCC1 [CBK174259]
% viability
  viability at 28.5 h, 10 µM: 100%

## CC(C)(C)OC(=O)N1CCC(NC(=O)c2ccc(-c3ccc(S(C)(=O)=O)cc3)cn2)CC1 [CBK174352]
% viability
  viability at 28.5 h, 10 µM: 84.8%

## CCN1CCN(c2ccc(-c3ccc(OCC4CCN(C(=O)OC(C)(C)C)CC4)cn3)cn2)CC1 [CBK174505]
% viability
  viability at 28.5 h, 10 µM: 109%

## COCc1cc(-c2ccc(C(=O)N3CCN(C)CC3)nc2)ccc1OCC1CCN(C(=O)OC(C)(C)C)CC1 [CBK174511]
% viability
  viability at 28.5 h, 10 µM: 84%

## O=C(NC1CCOCC1)c1n[nH]c2c1CCC2 [CBK174626]
% viability
  viability at 28.5 h, 10 µM: 113%

## CCN1CCC[C@@H]1CNC(=O)c1n[nH]c2c1CCC2 [CBK174628]
% viability
  viability at 28.5 h, 10 µM: 106%

## COc1cccc(NC(=O)c2ccnc(Cl)c2)c1 [CBK174661]
% viability
  viability at 28.5 h, 10 µM: 104%

## COc1cccc(NC(=O)c2ccncc2Cl)c1 [CBK174695]
% viability
  viability at 28.5 h, 10 µM: 96.3%

## Cc1cc(OCC2CCN(C(=O)OC(C)(C)C)CC2)ccc1Br [CBK175091]
% viability
  viability at 28.5 h, 10 µM: 108%

## CCOC(=O)c1cn[nH]c1N [CBK175217]
% viability
  viability at 28.5 h, 10 µM: 89.4%

## CCNC(=O)Nc1ccccc1C(=O)NC1CCCCC1 [CBK175266]
% viability
  viability at 28.5 h, 10 µM: 89.6%

## Cc1csc(NC(=O)C2CC(=O)N(C3CCCC3)C2)n1 (stereo not drawn) [CBK175501]
% viability
  viability at 28.5 h, 10 µM: 107%

## Cc1cnc(NC(=O)C2CC(=O)N(Cc3cccs3)C2)s1 (stereo not drawn) [CBK175531]
% viability
  viability at 28.5 h, 10 µM: 90.9%

## CC(C)(C)c1csc(NC(=O)C2CC(=O)N(C3CCCC3)C2)n1 (stereo not drawn) [CBK175544]
% viability
  viability at 28.5 h, 10 µM: 105%

## O=C(Nc1ncc(Cl)s1)C1CC(=O)N(C2CC2)C1 (stereo not drawn) [CBK175551]
% viability
  viability at 28.5 h, 10 µM: 102%

## COCc1ccc(Nc2ccccc2S(=O)(=O)c2ccccc2)cc1OCC1CCN(C(=O)OC(C)(C)C)CC1 [CBK175577]
% viability
  viability at 28.5 h, 10 µM: 94.6%

## Cn1c(COc2cncc(Cl)n2)cc2ccccc21 [CBK176002]
% viability
  viability at 28.5 h, 10 µM: 89.9%

## Clc1cncc(OCCc2c[nH]c3ccccc23)n1 [CBK176027]
% viability
  viability at 28.5 h, 10 µM: 65.2%

## Clc1ccc(OCCOc2ccccc2)nn1 [CBK176034]
% viability
  viability at 28.5 h, 10 µM: 86.7%

## O=C(CSc1ccc2ccccc2n1)Nc1ccnc2ccccc12 [CBK176848]
% viability
  viability at 28.5 h, 10 µM: 78.1%

## COc1ncccc1-c1cccnc1-n1ccnc1 [CBK176872]
% viability
  viability at 28.5 h, 10 µM: 92.6%

## CSc1cccc(-c2cnccc2-n2ccnc2)c1 [CBK177155]
% viability
  viability at 28.5 h, 10 µM: 92.5%

## COc1cccc(COc2cncc(N3CCNCC3)n2)c1OC [CBK200003]
% viability
  viability at 28.5 h, 10 µM: 98.6%

## CN(C)c1cccc(COc2cncc(N3CCNCC3)n2)c1 [CBK200004]
% viability
  viability at 28.5 h, 10 µM: 82.1%

## COc1cccc(OCCOc2nsnc2N2CCNCC2)c1 [CBK200007]
% viability
  viability at 28.5 h, 10 µM: 110%

## Cc1ccc(S(=O)(=O)N(C)c2ccnc(N3CCNCC3)n2)cc1 [CBK200009]
% viability
  viability at 28.5 h, 10 µM: 107%

## CCN1CCN(c2ccc(NS(=O)(=O)c3ccccc3)c3ccccc23)CC1 [CBK200011C]
% viability
  viability at 28.5 h, 10 µM: 88.3%

## COc1ccccc1NS(=O)(=O)c1ccc(N2C[C@@H](C)N[C@@H](C)C2)c2ccccc12 [CBK200012C]
% viability
  viability at 28.5 h, 10 µM: 85.3%

## CN1CCN(c2nc(NS(=O)(=O)c3cccc(C(F)(F)F)c3)cc3ccccc23)CC1 [CBK200013C]
% viability
  viability at 28.5 h, 10 µM: 98.6%

## O=S(=O)(Nc1ccc(N2CCNCC2)c2ccccc12)c1ccc(Br)cc1F [CBK200014C]
% viability
  viability at 28.5 h, 10 µM: 95.4%

## O=S(=O)(c1ccc(C(F)(F)F)cc1)c1ccc2nccc(N3CCNCC3)c2c1 [CBK200016C]
% viability
  viability at 28.5 h, 10 µM: 91.2%

## CN1CCN(c2ccc3ccn(S(=O)(=O)c4ccccc4Br)c3n2)CC1 [CBK200019C]
% viability
  viability at 28.5 h, 10 µM: 92.5%
